# Reference: ChEMBL document CHEMBL3046801, “Synthesis of 2-R1-2-(4-(2-fluoroethoxy)benzamido)acetate as potential PET imaging agents” (Med Chem Res, 2012)
# Legend:
# Lung [1] = experiment: Biodistribution in tumor bearing Mus musculus KM (mouse) lung at 3.7 MBq, iv measured at 15 min by microPET imaging analysis; type: ADME, organism-based; conditions: in vivo, 0.25 h
# Kidney [2] = experiment: Clearance in tumor-bearing Mus musculus KM (mouse) kidney at 3.7 MBq, iv measured at 60 min; type: ADME, organism-based; conditions: in vivo, 1 h
# Nucleic Acid [3] = experiment: Ratio of drug uptake in tumor to muscle in Mus musculus KM (mouse) at 3.7 MBq, iv at 60 min; type: ADME, organism-based; conditions: in vivo, 1 h
# Blood [4] = experiment: Biodistribution in tumor bearing Mus musculus KM (mouse) blood at 3.7 MBq, iv measured at 120 min by microPET imaging analysis; type: ADME, organism-based; conditions: in vivo, 2 h
# Liver [5] = experiment: Clearance in tumor-bearing Mus musculus KM (mouse) liver at 3.7 MBq, iv measured at 60 min; type: ADME, organism-based; conditions: in vivo, 1 h
# Blood [6] = experiment: Clearance in tumor-bearing Mus musculus KM (mouse) blood at 3.7 MBq, iv measured at 60 min; type: ADME, organism-based; conditions: in vivo, 1 h
# Brain [7] = experiment: Biodistribution in tumor bearing Mus musculus KM (mouse) brain at 3.7 MBq, iv by microPET imaging analysis; type: ADME, organism-based; conditions: in vivo, TDE = time-dependent effect
# Kidney [8] = experiment: Biodistribution in tumor bearing Mus musculus KM (mouse) kidney at 3.7 MBq, iv measured at 60 min by microPET imaging analysis; type: ADME, organism-based; conditions: in vivo, 1 h
# Nucleic Acid [9] = experiment: Ratio of drug uptake in tumor to muscle in Mus musculus KM (mouse) at 3.7 MBq, iv at 30 min; type: ADME, organism-based; conditions: in vivo, 0.5 h
# Tumour [10] = experiment: Biodistribution in tumor of Mus musculus KM (mouse) at 3.7 MBq, iv measured at 5 min by microPET imaging analysis; type: ADME, organism-based, Neoplasm; conditions: in vivo
# Kidney [11] = experiment: Biodistribution in tumor bearing Mus musculus KM (mouse) kidney at 3.7 MBq, iv by microPET imaging analysis; type: ADME, organism-based; conditions: in vivo, TDE = time-dependent effect
# Tumour [12] = experiment: Biodistribution in tumor of Mus musculus KM (mouse) at 3.7 MBq, iv measured at 60 min by microPET imaging analysis; type: ADME, organism-based, Neoplasm; conditions: in vivo, 1 h
# Liver [13] = experiment: Biodistribution in tumor bearing Mus musculus KM (mouse) liver at 3.7 MBq, iv measured at 120 min by microPET imaging analysis; type: ADME, organism-based; conditions: in vivo, 2 h
# Lung [14] = experiment: Biodistribution in tumor bearing Mus musculus KM (mouse) lung at 3.7 MBq, iv measured at 60 min by microPET imaging analysis; type: ADME, organism-based; conditions: in vivo, 1 h
# Tumour [15] = experiment: Biodistribution in tumor of Mus musculus KM (mouse) at 3.7 MBq, iv measured at 120 min by microPET imaging analysis; type: ADME, organism-based, Neoplasm; conditions: in vivo, 2 h
# Heart = experiment: Biodistribution in tumor bearing Mus musculus KM (mouse) heart at 3.7 MBq, iv measured at 30 min by microPET imaging analysis; type: ADME, organism-based; conditions: in vivo, 0.5 h
# Blood [16] = experiment: Biodistribution in tumor bearing Mus musculus KM (mouse) blood at 3.7 MBq, iv measured at 15 min by microPET imaging analysis; type: ADME, organism-based; conditions: in vivo, 0.25 h
# Liver [17] = experiment: Biodistribution in tumor bearing Mus musculus KM (mouse) liver at 3.7 MBq, iv measured at 30 min by microPET imaging analysis; type: ADME, organism-based; conditions: in vivo, 0.5 h
# Blood [18] = experiment: Biodistribution in tumor bearing Mus musculus KM (mouse) blood at 3.7 MBq, iv measured at 30 min by microPET imaging analysis; type: ADME, organism-based; conditions: in vivo, 0.5 h
# Spleen = experiment: Biodistribution in tumor bearing Mus musculus KM (mouse) spleen at 3.7 MBq, iv measured at 30 min by microPET imaging analysis; type: ADME, organism-based; conditions: in vivo, 0.5 h
# Brain [19] = experiment: Biodistribution in tumor bearing Mus musculus KM (mouse) brain at 3.7 MBq, iv measured at 60 min by microPET imaging analysis; type: ADME, organism-based; conditions: in vivo, 1 h
# Lung [20] = experiment: Biodistribution in tumor bearing Mus musculus KM (mouse) lung at 3.7 MBq, iv measured at 5 min by microPET imaging analysis; type: ADME, organism-based; conditions: in vivo
smiles,measurement,setting,value
COC(=O)CNC(=O)c1ccc(OCC[18F])cc1 [[18F]FEBA],Drug uptake,Lung [1],1.69 % ID/g
same,CL,Kidney [2],97%
same,Ratio,Nucleic Acid [3],2.8
same,Drug uptake,Blood [4],0.85 % ID/g
same,CLH,Liver [5],91%
same,CL,Blood [6],96%
same,Drug uptake,Brain [7],tde
same,Drug uptake,Kidney [8],0.97 % ID/g
same,Ratio,Nucleic Acid [9],1.82
same,Drug uptake,Tumour [10],2.12 % ID/g
same,Drug uptake,Kidney [11],tde
same,Drug uptake,Tumour [12],1.48 % ID/g
same,Drug uptake,Liver [13],0.68 % ID/g
same,Drug uptake,Lung [14],0.87 % ID/g
same,Drug uptake,Tumour [15],1.21 % ID/g
same,Drug uptake,Heart,0.95 % ID/g
same,Drug uptake,Blood [16],2.17 % ID/g
same,Drug uptake,Liver [17],1.08 % ID/g
same,Drug uptake,Blood [18],1.28 % ID/g
same,Drug uptake,Spleen,0.79 % ID/g
same,Drug uptake,Brain [19],0.55 % ID/g
same,Drug uptake,Lung [20],5.09 % ID/g
